# Patent US20060276407A1, “Methods of treating hepatitis C virus” (Schering Corporation, priority 2005, published 2006)
# Where two headings read alike, the source gives them in different places.
# Tests used:
# [1] = Multiple oral dosing for 14 days, pharmacokinetics in HCV infected subjects (Example 3); assay type: in vivo, human; conditions: for DN Cmax / DN-AUC(0-12 hr): dose-normalized (to 100 mg); for Cmin: at 0 hour (trough) predose; for Cmax / AUC(0-t) / Tmax / Vd/F / half-life: human, plasma, oral; for half-life: read-out: t½ (converted)
# Protocol: Multiple escalating doses of compound of Formula Ia were administered for 14 days to HCV positive subjects who were genotype 1 Interferon-a (with or without ribavirin) non responders. In a randomized, placebo controlled, third party blind study, multiple doses of 100 mg BID, 200 mg BID, 400 mg BID, 400 mg TID, and 600 mg TID of compound of Formula Ia or placebo in a 3:1 ratio with or without food were evaluated.
# Upon acceptance into the study, within each cohort, subjects were randomized in a 3:1 ratio (active to placebo) and received one of the following dosing groups: • Group 1: Compound of Formula Ia 100 mg (2×50 mg) BID or matching placebo×14 days without food. • Group 2: Compound of Formula Ia 200 mg (2×100 mg) BID or matching placebo×14 days without food. • Group 3: Compound of Formula Ia 400 mg (4×100 mg) BID or matching placebo×14 days without food. • Group4: Compound of Formula Ia 400 mg (4×100 mg) TID or matching placebo×14 days without food. • Group 5: Compound of Formula Ia 400 mg (4×100 mg) BID or matching placebo×14 days with food. • Group 6: Compound of Formula Ia 600 mg (6×100 mg) BID or matching placebo×14 days without food. • Group 7: Compound of Formula Ia 600 mg (6×100 mg) BID or matching placebo×14 days with food. • Group 8: compound of Formula Ia 600 mg (6×100 mg) TID or matching placebo×14 days without food. • Group 9: compound of Formula Ia intermediate dose or matching placebo×14 days with or without food.
# Each subject was randomized to one treatment group. On Day 14, only the AM dose was administered.
# For Cohorts Without Food: Treatments were administered on the morning (approximately 8 AM) of Days 1 and 14 following a 10 hour fast. Fasting continued until 4 hours postdose. Water was allowed during the fasting period. On the nonpharmacokinetic collection days (Days 2 through 13) breakfast and dinner were consumed either 90 minutes before or 90 minutes after each dose. All treatments were administered with approximately 240 mL of noncarbonated water. All doses on Days 1-14 were administered at approximately the same time each day, for cohorts with BID dosing study treatment were administered approximately 12 hours apart at 8 AM and 8 PM, and for cohorts with TID dosing study treatment were administered approximately 8 hours apart at 8 AM, 4 PM, and 12 Midnight.
# For Cohorts With TID Dosing: All volunteers were dosed three times daily at approximately the same time each day; the doses were administered approximately 8 hours apart at 8 AM, 4 PM, and 12 Midnight.
# For Cohorts With BID Dosing: All volunteers were dosed twice a day at approximately the same time each day. The doses were administered approximately 12 hours apart at 8 AM and 8 PM.
# On Day 14, all subjects received only their assigned AM dose. During the dosing the capsule(s) were swallowed whole, not chewed or crushed. After dosing, the oral cavity was inspected to assure the volunteer had completely swallowed the capsule(s). […] Water was permitted throughout the fasting and nonfasting periods.
# The plasma concentration data of compound of Formula Ia was used to estimate the following pharmacokinetic parameters: • Cmax—Maximum observed plasma concentration; • Tmax—Time of observed maximum plasma concentration; • AUC(0-t)—Area under the plasma concentration-time curve over the dosing interval • AUC (tf)—Area under the plasma concentration-time curve to the final quantifiable sample • CL/F—Apparent total body clearance. • t½—Terminal phase half life • Vd/F—Apparent volume of distribution • R—Accumulation ratio
# All plasma samples were assayed for compound of Formula Ia using a validated liquid chromatographic tandem mass spectrometric (LC-MS/MS) method.
# [2] = test system: HCV-RNA viral load; assay: Effect on HCV-RNA viral load, 14 days dosing of HCV positive genotype 1 interferon non responders (Example 3); assay type: in vivo
# Protocol: Multiple escalating doses of compound of Formula Ia were administered for 14 days to HCV positive subjects who were genotype 1 Interferon-a (with or without ribavirin) non responders. In a randomized, placebo controlled, third party blind study, multiple doses of 100 mg BID, 200 mg BID, 400 mg BID, 400 mg TID, and 600 mg TID of compound of Formula Ia or placebo in a 3:1 ratio with or without food were evaluated. […]
# Serial HCV-RNA data were evaluated for antiviral activity and for the change from baseline in the serum HCV RNA levels.
# [3] = 100 mg, Day 14, 100 mg BID, mean
# [4] = 200 mg, Day 14, 200 mg BID, mean
# [5] = 400 mg, Day 14, 400 mg BID, mean
# [6] = 400 mg, Day 14, 400 mg TID, mean
smiles,measurement,setting,value
"CC(C)(C)NC(=O)N[C@H](C(=O)N1C[C@H]2[C@@H]([C@H]1C(=O)NC(CC1CCC1)C(=O)C(N)=O)C2(C)C)C(C)(C)C (mixture of isomers) [Formula Ia, (1 R, 5S)-N-[3-Amino-1-(Cyclobutylmethyl)-2,3-Dioxopropyl]-3-[2(S)-[[[(1,1-Dimethylethyl)Amino]Carbonyl]Amino]-3,3-Dimethyl-1-Oxobutyl]-6,6-Dimethyl-3-Azabicyclo[3.1.0]Hexan-2(S)-Carboxamide]",mean accumulation ratio,[1]; BID dosing,1
same,DN Cmax,"[1]; Day 1, 100 mg BID, mean",131 ng/mL
same,DN-AUC(0-12 hr),"[1]; Day 1, 100 mg BID, mean",417 ng·h/mL
same,DN Cmax,"[1]; Day 1, 200 mg BID, mean",162 ng/mL
same,DN-AUC(0-12 hr),"[1]; Day 1, 200 mg BID, mean",492 ng·h/mL
same,DN Cmax,"[1]; Day 1, 400 mg BID, mean",116 ng/mL
same,DN-AUC(0-12 hr),"[1]; Day 1, 400 mg BID, mean",421 ng·h/mL
same,Cmin,"[1]; Day 14, 100 mg BID, mean",12.7 ng/mL
same,DN Cmax,"[1]; Day 14, 100 mg BID, mean",193 ng/mL
same,DN-AUC(0-12 hr),"[1]; Day 14, 100 mg BID, mean",700 ng·h/mL
same,CL/F,"[1]; Day 14, 100 mg BID, mean",159 L/h
same,R (accumulation ratio),"[1]; Day 14, 100 mg BID, mean",2.40
same,t½,"[1]; Day 14, 100 mg BID, mean",8.58 h
same,Cmin,"[1]; Day 14, 200 mg BID, mean",46.3 ng/mL
same,DN Cmax,"[1]; Day 14, 200 mg BID, mean",212 ng/mL
same,DN-AUC(0-12 hr),"[1]; Day 14, 200 mg BID, mean",693 ng·h/mL
same,CL/F,"[1]; Day 14, 200 mg BID, mean",155 L/h
same,R (accumulation ratio),"[1]; Day 14, 200 mg BID, mean",1.45
same,Cmin,"[1]; Day 14, 400 mg BID, mean",48.8 ng/mL
same,DN Cmax,"[1]; Day 14, 400 mg BID, mean",115 ng/mL
same,DN-AUC(0-12 hr),"[1]; Day 14, 400 mg BID, mean",411 ng·h/mL
same,CL/F,"[1]; Day 14, 400 mg BID, mean",269 L/h
same,R (accumulation ratio),"[1]; Day 14, 400 mg BID, mean",1.00
same,Cmin,"[1]; Day 14, 400 mg TID, mean",183 ng/mL
same,DN Cmax,"[1]; Day 14, 400 mg TID, mean",138 ng/mL
same,CL/F,"[1]; Day 14, 400 mg TID, mean",206 L/h
same,R (accumulation ratio),"[1]; Day 14, 400 mg TID, mean",1.26
same,Cmax,"[1]; 100 mg, Day 1, 100 mg BID, mean, n = 12",131 ng/mL
same,AUC(0-t),"[1]; 100 mg, Day 1, 100 mg BID, mean, read-out: AUC(0-12 hr)",417 ng·h/mL
same,Tmax,"[1]; 100 mg, Day 1, 100 mg BID, median, read-out: Tmax",1.5 h
same,Cmax,[1]; [3],193 ng/mL
same,Vd/F,[1]; [3],1860 L
same,AUC(0-t),"[1]; 100 mg, Day 14, 100 mg BID, mean, read-out: AUC(0-12 hr)",700 ng·h/mL
same,half-life,[1]; [3],8.5 h
same,Tmax,"[1]; 100 mg, Day 14, 100 mg BID, median, read-out: Tmax",1.25 h
same,Cmax,"[1]; 200 mg, Day 1, 200 mg BID, mean, n = 12",324 ng/mL
same,AUC(0-t),"[1]; 200 mg, Day 1, 200 mg BID, mean, read-out: AUC(0-12 hr)",983 ng·h/mL
same,Tmax,"[1]; 200 mg, Day 1, 200 mg BID, median, read-out: Tmax",1 h
same,Cmax,[1]; [4],424 ng/mL
same,Vd/F,[1]; [4],2910 L
same,AUC(0-t),"[1]; 200 mg, Day 14, 200 mg BID, mean, read-out: AUC(0-12 hr)",1390 ng·h/mL
same,half-life,[1]; [4],13.4 h
same,Tmax,"[1]; 200 mg, Day 14, 200 mg BID, median, read-out: Tmax",1.25 h
same,Cmax,"[1]; 400 mg, Day 1, 400 mg BID, mean, n = 11",463 ng/mL
same,AUC(0-t),"[1]; 400 mg, Day 1, 400 mg BID, mean, read-out: AUC(0-12 hr)",1680 ng·h/mL
same,Tmax,"[1]; 400 mg, Day 1, 400 mg BID, median, read-out: Tmax",1.5 h
same,Cmax,"[1]; 400 mg, Day 1, 400 mg TID, mean, n = 10",504 ng/mL
same,AUC(0-t),"[1]; 400 mg, Day 1, 400 mg TID, mean, read-out: AUC(0-8 hr)",1650 ng·h/mL
same,Tmax,"[1]; 400 mg, Day 1, 400 mg TID, median, read-out: Tmax",1.5 h
same,Cmax,[1]; [5],459 ng/mL
same,Vd/F,[1]; [5],5030 L
same,AUC(0-t),"[1]; 400 mg, Day 14, 400 mg BID, mean, read-out: AUC(0-12 hr)",1640 ng·h/mL
same,half-life,[1]; [5],12.4 h
same,Tmax,"[1]; 400 mg, Day 14, 400 mg BID, median, read-out: Tmax",1 h
same,Cmax,[1]; [6],~550 ng/mL
same,Vd/F,[1]; [6],~5000 L
same,AUC(0-t),"[1]; 400 mg, Day 14, 400 mg TID, mean, read-out: AUC(0-8 hr)",1990 ng·h/mL
same,half-life,[1]; [6],15.9 h
same,Tmax,"[1]; 400 mg, Day 14, 400 mg TID, median, read-out: Tmax",1.5 h
same,Tmax,"[1]; across dosages (100 mg BID to 400 mg TID), read-out: Mean Tmax",1 to 1.5 h
same,Time at which steady-state trough levels were reached,[1]; multiple dosing,~11 days
same,"Viral load (HCV-RNA) reduction from baseline, average minimum reduction","[2]; 400 mg TID, 14 days",2 logs
same,HCV-RNA following discontinuation of the 14-day treatment,[2]; all patients,returned to baseline levels
